The values that follow come from ChEMBL document CHEMBL1144827, “PTP1B inhibitors: synthesis and evaluation of difluoro-methylenephosphonate bioisosteres on a sulfonamide scaffold” (Bioorg Med Chem Lett, 2008).

This experiment deals with T1, Tyrosine-protein phosphatase non-receptor type 1 (Homo sapiens, UniProt P18031).
T1 sequence (P18031 whole entry): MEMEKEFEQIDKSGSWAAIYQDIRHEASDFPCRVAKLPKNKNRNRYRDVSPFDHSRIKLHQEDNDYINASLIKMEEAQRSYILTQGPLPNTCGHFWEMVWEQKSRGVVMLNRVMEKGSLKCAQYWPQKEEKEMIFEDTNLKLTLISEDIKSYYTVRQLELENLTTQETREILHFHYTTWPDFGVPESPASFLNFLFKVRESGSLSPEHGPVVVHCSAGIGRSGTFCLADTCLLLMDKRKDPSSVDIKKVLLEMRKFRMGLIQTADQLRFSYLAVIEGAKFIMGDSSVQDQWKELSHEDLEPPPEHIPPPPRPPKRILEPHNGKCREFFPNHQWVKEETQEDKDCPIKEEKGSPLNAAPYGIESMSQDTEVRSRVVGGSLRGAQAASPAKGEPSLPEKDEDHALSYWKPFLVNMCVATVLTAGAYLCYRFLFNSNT
Nature of the experiment: Inhibition of PTP1B.
As for `O=C(O)COc1ccc(CN(Cc2ccc(-c3csnn3)cc2)S(=O)(=O)c2ccccc2)cc1Cl`, the IC50 – broadly, the point on the concentration scale where inhibition reaches its midpoint – came out at 53.8 µM.

On to `O=C(O)COc1ccc(S(=O)(=O)N(Cc2ccc(-c3csnn3)cc2)Cc2ccc(OC(F)(F)C(=O)O)c(Br)c2)cc1`, for which half-maximal inhibition (IC50) was put at 77.9 µM.

In turn, `O=C(O)COc1ccc(CN(Cc2ccc(-c3csnn3)cc2)S(=O)(=O)c2ccc(OCC(=O)O)cc2)cc1` registered an IC50 of 59.6 µM.

The compound `O=C(O)C(F)(F)c1ccc(CN(Cc2ccc(-c3csnn3)cc2)S(=O)(=O)c2ccccc2)cc1` came in with an IC50 of 51.8 µM.

Regarding `O=C(O)COc1ccc(S(=O)(=O)N(Cc2ccc(-c3csnn3)cc2)Cc2ccc(OCC(=O)O)c(Cl)c2)cc1`, inhibition was half-maximal at 57.7 µM (IC50).

`O=C(O)COc1c(F)cc(CN(Cc2ccc(-c3csnn3)cc2)S(=O)(=O)c2ccccc2)cc1F` registered an IC50 of 137 µM.

Compound `O=C(O)COc1ccc(S(=O)(=O)N(Cc2ccc(-c3csnn3)cc2)Cc2ccc(C(F)(F)C(=O)O)cc2)cc1` showed an IC50 of 17.7 µM.

In the case of `Cc1cc(CN(Cc2ccc(-c3csnn3)cc2)S(=O)(=O)c2ccccc2)ccc1OCC(=O)O`, half-maximal inhibition (IC50) was put at 80.7 µM.

For the compound `O=C(O)COc1ccc(S(=O)(=O)N(Cc2ccc(-c3csnn3)cc2)Cc2ccc(OCC(=O)O)c(C(=O)O)c2)cc1`, the IC50 came out at 4.4 µM.

With `O=C(O)C(=O)Nc1ccc(CN(Cc2ccc(-c3csnn3)cc2)S(=O)(=O)c2ccccc2)cc1C(=O)O`, the IC50 is 10.1 µM.

With `Cc1cc(CN(Cc2ccc(-c3csnn3)cc2)S(=O)(=O)c2ccccc2)cc(C)c1OC(Cc1ccccc1)C(=O)O` (centres undefined), inhibition was half-maximal at 38 µM (IC50).

For the compound `Cc1cc(CN(Cc2ccc(-c3csnn3)cc2)S(=O)(=O)c2ccc(OCC(=O)O)cc2)ccc1OCC(=O)O`, the IC50 stood at 76.2 µM.

Turning to `COc1cc(CN(Cc2ccc(-c3csnn3)cc2)S(=O)(=O)c2ccc(OCC(=O)O)cc2)ccc1OC(F)(F)C(=O)O`, the IC50 is over 250 µM.

For `CC(C(=O)O)(C(=O)O)c1ccc(CN(Cc2ccc(-c3csnn3)cc2)S(=O)(=O)c2ccc(OCC(=O)O)cc2)cc1`, the midpoint of inhibition, the IC50, lay at 74.2 µM.

`CC(C(=O)O)c1ccc(CN(Cc2ccc(-c3csnn3)cc2)S(=O)(=O)c2ccc(OCC(=O)O)cc2)cc1` (centres undefined) displayed an IC50 of 153 µM.

As for `O=C(O)COc1ccc(S(=O)(=O)N(Cc2ccc(OC(F)(F)C(=O)O)cc2)Cc2ccc(-c3csnn3)cc2)cc1`, inhibition was half-maximal at 29.1 µM (IC50).

In turn, `O=C(O)C(F)(F)Oc1cccc(CN(Cc2ccc(-c3csnn3)cc2)S(=O)(=O)c2ccccc2)c1` returned an IC50 of 198 µM.

In turn, `O=C(O)COc1ccc(S(=O)(=O)N(Cc2ccc(-c3csnn3)cc2)Cc2cccc(OC(F)(F)C(=O)O)c2)cc1` had an IC50 of 230 µM.

With `O=C(O)CSc1ccc(CN(Cc2ccc(-c3csnn3)cc2)S(=O)(=O)c2ccccc2)cc1`, the IC50 stood at 115 µM.

In the case of `O=C(O)C(F)(F)Oc1ccc(CN(Cc2ccc(-c3csnn3)cc2)S(=O)(=O)c2ccccc2)cc1`, it took 97.1 µM to reach half-maximal inhibition (IC50).

Regarding `O=C(O)CS(=O)(=O)c1ccc(CN(Cc2ccc(-c3csnn3)cc2)S(=O)(=O)c2ccccc2)cc1`, the IC50 stood at 232 µM.

In the case of `O=C(O)COc1ccc(S(=O)(=O)N(Cc2ccc(-c3csnn3)cc2)Cc2cc(F)c(OCC(=O)O)c(F)c2)cc1`, inhibition was half-maximal at 19.9 µM (IC50).

The compound `O=C(O)COc1ccc(S(=O)(=O)N(Cc2ccc(-c3csnn3)cc2)Cc2ccc(N(C(=O)C(=O)O)c3ccccc3)cc2)cc1` displayed an IC50 of over 250 µM.

With `COc1cc(CN(Cc2ccc(-c3csnn3)cc2)S(=O)(=O)c2ccccc2)ccc1OC(F)(F)C(=O)O`, the IC50 is 237 µM.

The compound `Cc1cc(CN(Cc2ccc(-c3csnn3)cc2)S(=O)(=O)c2ccc(OCC(=O)O)cc2)cc(C)c1OC(Cc1ccccc1)C(=O)O` (centres undefined) showed an IC50 of over 250 µM.

Take `O=C(O)C(=O)c1ccc(CN(Cc2ccc(-c3csnn3)cc2)S(=O)(=O)c2ccccc2)cc1`: the IC50 was determined as 60.3 µM.

The compound `O=C(O)c1cc2cc(CN(Cc3ccc(-c4csnn4)cc3)S(=O)(=O)c3ccccc3)ccc2o1` registered an IC50 of 63.6 µM.

Take `O=C(O)C[S+]([O-])c1ccc(CN(Cc2ccc(-c3csnn3)cc2)S(=O)(=O)c2ccccc2)cc1` (centres undefined): half-maximal inhibition (IC50) required 173 µM.

Consider `O=C(O)COc1ccc(S(=O)(=O)N(Cc2ccc(-c3csnn3)cc2)Cc2ccc([S+]([O-])CC(=O)O)cc2)cc1` (centres undefined), for which the IC50 was over 250 µM.

Regarding `O=P(O)(O)C(F)(F)c1ccc(CN(Cc2ccc(-c3csnn3)cc2)S(=O)(=O)c2ccccc2)cc1`, the midpoint of inhibition, the IC50, lay at 0.2 µM.

As for `O=C(O)COc1ccc(CN(Cc2ccc(-c3csnn3)cc2)S(=O)(=O)c2ccccc2)cc1C(=O)O`, the IC50 was 12.2 µM.

Regarding `O=C(O)COc1ccc(S(=O)(=O)N(Cc2ccc(-c3csnn3)cc2)Cc2ccc(OCC(=O)O)c(Br)c2)cc1`, half-maximal inhibition (IC50) required 4.1 µM.

`O=C(O)C(F)(F)Oc1ccc(CN(Cc2ccc(-c3csnn3)cc2)S(=O)(=O)c2ccccc2)cc1Br` gave an IC50 of 52.1 µM.

The compound `O=C(O)COc1ccc(S(=O)(=O)N(Cc2ccc(SCC(=O)O)cc2)Cc2ccc(-c3csnn3)cc2)cc1` returned an IC50 of 114 µM.

In turn, `O=C(O)C(=O)Nc1ccc(CN(Cc2ccc(-c3csnn3)cc2)S(=O)(=O)c2ccccc2)cc1Br` gave an IC50 of 13.8 µM.

Compound `O=C(O)COc1ccc(S(=O)(=O)N(Cc2ccc(-c3csnn3)cc2)Cc2ccc(S(=O)(=O)CC(=O)O)cc2)cc1` yielded an IC50 of over 250 µM.

Compound `O=P(O)(O)Cc1ccc(CN(Cc2ccc(-c3csnn3)cc2)S(=O)(=O)c2ccccc2)cc1` showed an IC50 of 123 µM.

For the compound `O=C(O)COc1ccc(S(=O)(=O)N(Cc2ccc(CP(=O)(O)O)cc2)Cc2ccc(-c3csnn3)cc2)cc1`, the IC50 worked out at 96.8 µM.

Compound `O=C(O)COc1ccc(S(=O)(=O)N(Cc2ccc(-c3csnn3)cc2)Cc2ccc3oc(C(=O)O)cc3c2)cc1` registered an IC50 of 29.1 µM.

For `O=C(O)COc1ccc(CN(Cc2ccc(-c3csnn3)cc2)S(=O)(=O)c2ccccc2)cc1Br`, the IC50 is 7.9 µM.

`O=C(O)COc1ccc(S(=O)(=O)N(Cc2ccc(C(=O)C(=O)O)cc2)Cc2ccc(-c3csnn3)cc2)cc1` returned an IC50 of 27.6 µM.

Consider `O=C(O)C(=O)N(c1ccccc1)c1ccc(CN(Cc2ccc(-c3csnn3)cc2)S(=O)(=O)c2ccccc2)cc1`, for which the IC50 worked out at 235 µM.

In the case of `O=C(O)COc1ccc(CN(Cc2ccc(-c3csnn3)cc2)S(=O)(=O)c2ccccc2)cc1`, it took 54.1 µM to reach half-maximal inhibition (IC50).

As to `O=C(O)COc1ccc(S(=O)(=O)N(Cc2ccc(-c3csnn3)cc2)Cc2ccc(NC(=O)C(=O)O)c(C(=O)O)c2)cc1`, the IC50 was 1.4 µM.
